The supplement of paper PMC11208160

test: recombinant barcode read abundance after kanamycin selection (control-corrected) (log10(CPM+1)); higher = more efficient recombination; sequences stand for … in AGTGCAGAGAAAATCGGCCAGTTTTCTCTGCCTGCAGTCCGCATGCCGT…AGATTTATGCAGCGGACTGCCTTTCTCCCAAAGTGATAAACCGGACAGTATCATGGACCGGTTTTCCCGGTAATCCGTATTTGCAAGGTTGGTTTCACT; site = the 11-nt target
Outline: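 Pooled oligos, each joining a target to an IS621 bridge RNA target-binding loop, were cloned and co-electroporated with a donor plasmid into E. coli. Selective plates carried chloramphenicol/ampicillin/kanamycin and 0.1 mM IPTG, while chloramphenicol/ampicillin LB agar served as control, with two replicates of each. Recombination efficiency rests on averaged, control-corrected counts per million of barcodes at recombinant junctions, shown as log10(CPM+1).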
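Also: IS621 recombinase and bridge RNA in Escherichia coli cells.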

Point of comparison: “GCACCACCTTGGGTTCTAACCTGTTGCCT (site GCACTACCTAG)”, “recombinant barcode read abundance (log10)” value 0.127. Against it:
- GATTCGACTTGGGTTCTAACCTGTTGCGT (site CTGGACCCTCG) — within 0.2 log units, 0.0133
- GATTCGACTTGGGTTCTAACCTGTTGCGT (site GATTCGACTAC) — higher, 1.02
- GATTCTCCTTGGGTTCTAACCTGTTGCAT (site GATTCTCCTAA) — within 0.2 log units, 0.246
- GATTCTCCTTGGGTTCTAACCTGTTGCAT (site GATTCTCCTAC) — within 0.2 log units, 0.143
- GATTCTCCTTGGGTTCTAACCTGTTGCAT (site GATTCTCCTAG) — within 0.2 log units, 0.0815
- GATTCTCCTTGGGTTCTAACCTGTTGCAT (site GATTCTCCTAT) — within 0.2 log units, 0.197
- GATTCTTCTTGGGTTCTAACCTGTTGCCT (site GATTCTTCTAG) — within 0.2 log units, 0.1
- GATTCTTCTTGGGTTCTAACCTGTTGCCT (site GCTTCTTCTAG) — within 0.2 log units, 0.024
- GATTCTTCTTGGGTTCTAACCTGTTGCCT (site GGTTCTTCTAG) — within 0.2 log units, 0.232
- GATTCTTCTTGGGTTCTAACCTGTTGCCT (site GTTTCTTCTAG) — within 0.2 log units, 0
- GATTGGACTTGGGTTCTAACCTGTTGCTT (site AATTGGACTAA) — higher, 0.38
- GATTGGACTTGGGTTCTAACCTGTTGCTT (site CATTGGACTAA) — higher, 0.421
- GATTGGACTTGGGTTCTAACCTGTTGCTT (site GATTGGACTAA) — higher, 0.661
- GATTGGACTTGGGTTCTAACCTGTTGCTT (site TATTGGACTAA) — within 0.2 log units, 0.128
- GCAAAGCCTTGGGTTCTAACCTGTTGCCT (site GCAAAGCCTAG) — higher, 1.18
- GCAAAGCCTTGGGTTCTAACCTGTTGCCT (site GCACAGACTAG) — within 0.2 log units, 0.195
- GCAAGGACTTGGGTTCTAACCTGTTGCAG (site GCAAGGACTCT) — higher, 2.6
- GCAAGGACTTGGGTTCTAACCTGTTGCAG (site GCACGGACTCT) — within 0.2 log units, 0.165
- GCAAGGACTTGGGTTCTAACCTGTTGCAG (site GCAGGGACTCT) — higher, 0.76
- GCAAGGACTTGGGTTCTAACCTGTTGCAG (site GCATGGACTCT) — higher, 0.587
- GCAAGGCCTTGGGTTCTAACCTGTTGCCT (site ACAAGGCCTAG) — within 0.2 log units, 0.0435
- GCAAGGCCTTGGGTTCTAACCTGTTGCCT (site CCAAGGCCTAG) — higher, 0.721
- GCAAGGCCTTGGGTTCTAACCTGTTGCCT (site GCAAGGCCTAG) — higher, 0.418
- GCAAGGCCTTGGGTTCTAACCTGTTGCCT (site TCAAGGCCTAG) — within 0.2 log units, 0.0143
- GCAATTACTTGGGTTCTAACCTGTTGCTT (site GCAATTACTAA) — within 0.2 log units, 0.0238
- GCAATTACTTGGGTTCTAACCTGTTGCTT (site TGGGGCCCTCG) — within 0.2 log units, 0.078
- GCACCACCTTGGGTTCTAACCTGTTGCCT (site GCACAACCTAG) — within 0.2 log units, 0.0145
- GCACCACCTTGGGTTCTAACCTGTTGCCT (site GCACCACCTAG) — higher, 1.06
- GCACCACCTTGGGTTCTAACCTGTTGCCT (site GCACGACCTAG) — within 0.2 log units, 0.178
- GCACCGCCTTGGGTTCTAACCTGTTGCCT (site ACACCGCCTAG) — higher, 0.667
- GCACCGCCTTGGGTTCTAACCTGTTGCCT (site CCACCGCCTAG) — within 0.2 log units, 0.0991
- GCACCGCCTTGGGTTCTAACCTGTTGCCT (site GCACCGCCTAG) — higher, 1.09
- GCACCGCCTTGGGTTCTAACCTGTTGCCT (site TCACCGCCTAG) — within 0.2 log units, 0.0378
- GCACGCCCTTGGGTTCTAACCTGTTGCCT (site GCACGCCCTAG) — higher, 0.711
- GCACGCCCTTGGGTTCTAACCTGTTGCCT (site TCCCGCCCTAG) — within 0.2 log units, 0.0743
- GCACGCCCTTGGGTTCTAACCTGTTGCTT (site GCACGCCCTAA) — higher, 0.737
- GCACGCCCTTGGGTTCTAACCTGTTGCTT (site GCGCGGCCTAA) — within 0.2 log units, 0.181
- GCACTCCCTTGGGTTCTAACCTGTTGCCT (site GCACTCCCTAG) — within 0.2 log units, 0.0516
- GCACTCCCTTGGGTTCTAACCTGTTGCCT (site GCCCTCCCTAG) — within 0.2 log units, 0.0585
- GCACTCCCTTGGGTTCTAACCTGTTGCCT (site GCGCTCCCTAG) — within 0.2 log units, 0.199
- GCACTCCCTTGGGTTCTAACCTGTTGCCT (site GCTCTCCCTAG) — higher, 0.831
- GCAGAGTCTTGGGTTCTAACCTGTTGCCT (site GAAGAGTCTAG) — within 0.2 log units, 0.201
- GCAGAGTCTTGGGTTCTAACCTGTTGCCT (site GCAGAGTCTAG) — higher, 2.1
- GCAGAGTCTTGGGTTCTAACCTGTTGCCT (site GGAGAGTCTAG) — within 0.2 log units, 0.0924
- GCAGAGTCTTGGGTTCTAACCTGTTGCCT (site GTAGAGTCTAG) — higher, 1.06
- GCAGGGACTTGGGTTCTAACCTGTTGCCT (site GAAGGGACTAG) — higher, 0.56
- GCAGGGACTTGGGTTCTAACCTGTTGCCT (site GCAGGGACTAG) — higher, 1.9
- GCAGGGACTTGGGTTCTAACCTGTTGCCT (site GGAGGGACTAG) — within 0.2 log units, 0.313
- GCAGGGACTTGGGTTCTAACCTGTTGCCT (site GTAGGGACTAG) — higher, 1.02
- GCAGGTACTTGGGTTCTAACCTGTTGCCT (site ACAGGTACTAG) — higher, 0.508
- GCAGGTACTTGGGTTCTAACCTGTTGCCT (site CCAGGTACTAG) — higher, 0.401
- GCAGGTACTTGGGTTCTAACCTGTTGCCT (site GCAGGTACTAG) — higher, 1.17
- GCAGGTACTTGGGTTCTAACCTGTTGCCT (site TCAGGTACTAG) — higher, 0.466
- GCAGGTGCTTGGGTTCTAACCTGTTGCTT (site ATTTCGACTCC) — within 0.2 log units, 0.0721
- GCAGGTGCTTGGGTTCTAACCTGTTGCTT (site GCAGGTGCTAA) — higher, 1.75
- GCATACACTTGGGTTCTAACCTGTTGCCA (site GCATACACTTG) — higher, 1.48
- GCATACACTTGGGTTCTAACCTGTTGCCA (site TGCAGGGCTCC) — within 0.2 log units, 0.0903
- GCATCTACTTGGGTTCTAACCTGTTGCTA (site CATAACGCTAG) — within 0.2 log units, 0.185
- GCATCTACTTGGGTTCTAACCTGTTGCTA (site GCATCTACTTA) — within 0.2 log units, 0.0861
- GCCAAACCTTGGGTTCTAACCTGTTGCTA (site GCCAAACCTTA) — within 0.2 log units, 0.0929
- GCCAAACCTTGGGTTCTAACCTGTTGCTA (site GTCAAGCCTTA) — within 0.2 log units, 0.176
- GCCAGACCTTGGGTTCTAACCTGTTGCCT (site GCCAAACCTAG) — within 0.2 log units, 0.0596
- GCCAGACCTTGGGTTCTAACCTGTTGCCT (site GCCACACCTAG) — within 0.2 log units, 0.0708
- GCCAGACCTTGGGTTCTAACCTGTTGCCT (site GCCAGACCTAG) — higher, 0.373
- GCCAGACCTTGGGTTCTAACCTGTTGCCT (site GCCATACCTAG) — within 0.2 log units, 0.112
- GCCAGCTCTTGGGTTCTAACCTGTTGCTG (site CAATTTCCTAT) — within 0.2 log units, 0.169
- GCCAGCTCTTGGGTTCTAACCTGTTGCTG (site GCCAGCTCTCA) — higher, 0.581
- GCCATAACTTGGGTTCTAACCTGTTGCCT (site GCCATAACTAG) — within 0.2 log units, 0.0347
- GCCATAACTTGGGTTCTAACCTGTTGCCT (site GCCATCACTAG) — within 0.2 log units, 0.0218
- GCCATAACTTGGGTTCTAACCTGTTGCCT (site GCCATGACTAG) — within 0.2 log units, 0.256
- GCCATAACTTGGGTTCTAACCTGTTGCCT (site GCCATTACTAG) — within 0.2 log units, 0.191
- GCCCGAACTTGGGTTCTAACCTGTTGCCT (site GCACGAACTAG) — within 0.2 log units, 0.141
- GCCCGAACTTGGGTTCTAACCTGTTGCCT (site GCCCGAACTAG) — higher, 0.998
- GCCCGAACTTGGGTTCTAACCTGTTGCCT (site GCGCGAACTAG) — within 0.2 log units, 0.0267
- GCCCGAACTTGGGTTCTAACCTGTTGCCT (site GCTCGAACTAG) — within 0.2 log units, 0.101
- GCCCGATCTTGGGTTCTAACCTGTTGCCT (site GCCCAATCTAG) — higher, 0.743
